The target of one assay is IP-TOR (TOR) (Arabidopsis thaliana, UniProt Q9FR53). The assay is described as follows: biochemical.
A further assay deals with T1, SnRK1 (in IP-TOR) (Arabidopsis thaliana, UniProt Q38997).
T1 sequence (Q38997 1-512): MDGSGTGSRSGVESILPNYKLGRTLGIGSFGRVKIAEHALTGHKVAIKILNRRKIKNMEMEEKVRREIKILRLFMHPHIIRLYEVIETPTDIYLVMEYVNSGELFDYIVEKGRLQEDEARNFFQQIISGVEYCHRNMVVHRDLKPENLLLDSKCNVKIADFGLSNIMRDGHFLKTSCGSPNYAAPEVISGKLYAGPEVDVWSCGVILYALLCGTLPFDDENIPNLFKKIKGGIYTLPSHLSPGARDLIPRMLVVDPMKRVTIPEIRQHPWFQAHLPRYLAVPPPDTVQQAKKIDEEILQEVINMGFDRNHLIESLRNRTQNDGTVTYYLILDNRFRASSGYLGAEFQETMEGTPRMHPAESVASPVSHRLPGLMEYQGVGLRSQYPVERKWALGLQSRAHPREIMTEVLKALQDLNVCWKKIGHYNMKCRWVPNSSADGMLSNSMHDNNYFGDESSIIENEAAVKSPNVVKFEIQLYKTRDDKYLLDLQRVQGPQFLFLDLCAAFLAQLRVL
The assay is described as follows: AMARA-peptide kinase assay with [γ-32P]ATP. To be noted: IP-TOR sample; 200 μM AMARA peptide, 20 μM ATP, 10 mM MgCl2, pH 7.5, 30 °C. In kind it is biochemical.

Molecules are shown by their SMILES. Some results are limits rather than exact numbers.

IP-TOR (TOR), sequence (Q9FR53 whole entry): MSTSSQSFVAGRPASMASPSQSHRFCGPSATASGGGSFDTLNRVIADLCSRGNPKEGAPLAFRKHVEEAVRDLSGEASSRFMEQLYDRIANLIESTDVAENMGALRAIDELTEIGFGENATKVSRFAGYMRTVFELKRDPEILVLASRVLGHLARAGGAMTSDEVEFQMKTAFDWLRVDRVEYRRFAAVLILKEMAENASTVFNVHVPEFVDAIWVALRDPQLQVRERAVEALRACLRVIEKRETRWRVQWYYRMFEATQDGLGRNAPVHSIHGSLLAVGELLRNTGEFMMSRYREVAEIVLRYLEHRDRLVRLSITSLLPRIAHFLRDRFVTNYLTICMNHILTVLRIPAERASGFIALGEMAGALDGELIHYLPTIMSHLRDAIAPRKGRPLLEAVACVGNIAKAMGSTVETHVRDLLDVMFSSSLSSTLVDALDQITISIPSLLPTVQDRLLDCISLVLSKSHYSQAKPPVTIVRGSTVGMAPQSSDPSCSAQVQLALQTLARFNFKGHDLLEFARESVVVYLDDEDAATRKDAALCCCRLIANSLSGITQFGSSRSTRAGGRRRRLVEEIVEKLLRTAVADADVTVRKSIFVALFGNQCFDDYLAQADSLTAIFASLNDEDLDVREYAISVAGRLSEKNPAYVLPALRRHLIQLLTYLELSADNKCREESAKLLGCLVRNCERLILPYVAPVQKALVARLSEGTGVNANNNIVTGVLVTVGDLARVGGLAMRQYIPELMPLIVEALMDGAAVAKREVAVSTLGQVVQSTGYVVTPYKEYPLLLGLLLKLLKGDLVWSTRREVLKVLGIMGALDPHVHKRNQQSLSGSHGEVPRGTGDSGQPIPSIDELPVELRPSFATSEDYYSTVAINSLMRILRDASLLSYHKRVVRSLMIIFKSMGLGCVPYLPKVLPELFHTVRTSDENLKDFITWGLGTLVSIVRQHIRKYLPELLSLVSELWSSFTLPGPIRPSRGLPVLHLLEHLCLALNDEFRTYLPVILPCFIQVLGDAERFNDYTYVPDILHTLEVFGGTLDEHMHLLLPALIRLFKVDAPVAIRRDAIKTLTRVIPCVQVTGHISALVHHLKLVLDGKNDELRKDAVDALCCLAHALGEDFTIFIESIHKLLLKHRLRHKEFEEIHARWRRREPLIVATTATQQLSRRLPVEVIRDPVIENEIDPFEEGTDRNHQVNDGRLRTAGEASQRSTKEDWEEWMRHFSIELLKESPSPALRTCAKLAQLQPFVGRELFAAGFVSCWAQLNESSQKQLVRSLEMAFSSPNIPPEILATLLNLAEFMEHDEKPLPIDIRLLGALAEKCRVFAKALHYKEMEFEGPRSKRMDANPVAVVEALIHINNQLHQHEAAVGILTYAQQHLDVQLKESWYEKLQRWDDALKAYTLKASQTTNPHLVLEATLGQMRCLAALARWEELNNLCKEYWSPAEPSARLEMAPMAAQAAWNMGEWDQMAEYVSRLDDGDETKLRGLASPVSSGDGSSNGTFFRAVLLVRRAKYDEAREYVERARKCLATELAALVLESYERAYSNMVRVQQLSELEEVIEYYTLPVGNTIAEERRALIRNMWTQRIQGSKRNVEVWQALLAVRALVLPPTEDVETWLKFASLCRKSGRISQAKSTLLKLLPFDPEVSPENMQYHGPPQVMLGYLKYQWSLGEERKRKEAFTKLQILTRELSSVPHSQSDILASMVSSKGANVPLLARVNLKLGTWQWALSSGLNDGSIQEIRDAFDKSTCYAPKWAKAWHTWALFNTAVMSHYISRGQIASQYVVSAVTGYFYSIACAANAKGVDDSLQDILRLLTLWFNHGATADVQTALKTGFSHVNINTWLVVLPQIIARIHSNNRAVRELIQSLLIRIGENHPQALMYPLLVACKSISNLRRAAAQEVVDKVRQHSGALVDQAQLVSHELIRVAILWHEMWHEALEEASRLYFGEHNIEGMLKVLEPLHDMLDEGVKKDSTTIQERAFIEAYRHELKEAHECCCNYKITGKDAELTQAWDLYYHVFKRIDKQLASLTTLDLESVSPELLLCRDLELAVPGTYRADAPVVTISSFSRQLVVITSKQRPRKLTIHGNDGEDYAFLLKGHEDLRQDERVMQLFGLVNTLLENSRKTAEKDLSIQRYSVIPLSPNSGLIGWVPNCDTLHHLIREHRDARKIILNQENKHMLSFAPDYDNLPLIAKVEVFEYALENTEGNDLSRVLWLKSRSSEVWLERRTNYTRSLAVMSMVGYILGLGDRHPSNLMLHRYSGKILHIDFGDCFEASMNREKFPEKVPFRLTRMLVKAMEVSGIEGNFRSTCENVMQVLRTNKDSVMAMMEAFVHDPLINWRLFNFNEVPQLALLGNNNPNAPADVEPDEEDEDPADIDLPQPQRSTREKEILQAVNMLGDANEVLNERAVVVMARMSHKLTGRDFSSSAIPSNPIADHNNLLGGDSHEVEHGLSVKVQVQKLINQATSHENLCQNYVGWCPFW

What is called Kd is the free concentration of one partner at which half of the binding sites on the other are occupied at equilibrium, for simple one-to-one binding. A high value points to weaker binding. `Nc1ncnc2c1ncn2[C@@H]1O[C@H](COP(=O)(O)OP(=O)(O)OP(=O)(O)O)[C@@H](O)[C@H]1O` [ATP] registered a Kd on IP-TOR (TOR) of 5.89 ± 0.83 µM.

Turning to `O=P(O)(O)OC[C@H]1O[C@H](O[C@H]2O[C@H](CO)[C@@H](O)[C@H](O)[C@H]2O)[C@H](O)[C@@H](O)[C@@H]1O` [T6P, Trehalose 6-phosphate], the “% reduction of activity at 1 mM” value at SnRK1 (in IP-TOR) is > 50%.

The values above are taken from article doi:10.64898/2025.12.11.693803v1 (biorxiv, 2025).
